Source: patent US11555820B2, “Nanohoop compounds for use in biotechnology and methods of making and using the same” (University of Oregon, priority 2017, dated 2023)

Experiments:
[1] = Photophysical properties of meta-substituted nanohoops (absorption, emission, extinction coefficient, quantum yield); format: physicochemical; conditions: for CPP ε × Φ (brightness): all-para [n]CPP with the same number of rings; for εAmax × ΦAmax (brightness) / εH→L: [n]mCPP; for Emission / Max Abs / ΦAmax (fluorescence quantum yield) / εAmax: dichloromethane; for ΦAmax (fluorescence quantum yield): room temperature; for εAmax: extinction coefficient at the absorbance maximum; for εH→L: extinction coefficient of the HOMO→LUMO transition
Protocol: In the following examples, all glassware was flame dried and cooled under an inert atmosphere of nitrogen unless otherwise noted. Moisture sensitive reactions were carried out under nitrogen atmosphere using Schlenk and standard syringe/septa techniques. Tetrahydrofuran, dichloromethane, dimethylformamide and 1,4-dioxane were dried by filtration through alumina according to the methods describes by Grubbs. Silica column chromatography was conducted with Zeochem Zeoprep 60 Eco 40-63 μm silica gel. Automated flash chromatography was performed using a Biotage Isolera One. Recycling gel permeation chromatography (GPC) was performed using a Japan Analytical Industry LC-9101 preparative HPLC with JAIGEL-1H/JAIGEL-2H columns in series using CHCl3. Thin Layer Chromatography (TLC) was performed using Sorbent Technologies Silica Gel XHT TLC plates. Developed plates were visualized using UV light at wavelengths of 254 and 365 nm. ^1H NMR spectra were recorded at 500 MHz or 600 MHz on a Bruker Advance-II-HD NMR spectrometer. ^13C NMR spectra were recorded 150 MHz on a Bruker Advance-III-HD NMR spectrometer. All ^1H NMR spectra were taken in CDCl3 (referenced to TMS, δ 0.00 ppm) or DMSO-d6 (referenced to residual DMSO, δ 2.50 ppm). All ^13C NMR spectra were taken in CDCl3 (referenced to chloroform, δ 77.16 ppm) or DMSO-d6 (referenced to DMSO, δ 39.52 ppm). Absorbance and fluorescence spectra were obtained in a 1 cm Quartz cuvette with dichloromethane using an Agilent Cary 100 UV-Vis spectrometer and a Horiba Jobin Yvon Fluoromax-4 Fluorimeter. Fluorescent quantum yield was measured in dichloromethane at room temperature using a Hamamatsu absolute PL quantum yield measurement system. Electrochemical experiments were performed using a Biologic SP-50 potentiostat with a Ag wire reference electrode, Pt wire counter electrode, and glassy carbon working electrode under nitrogen atmosphere in 100 mM solutions of Bu4NPF6 in DCM with ferrocene as a reference. All reagents were obtained commercially unless otherwise noted. Compounds para-benzoquinone mono-methyl ketal, compound A, compound B, PPh3 Pd Gen III, and SPhos Pd Gen 1115 were prepared according to literature procedure.
In this example, the photophysical properties of nanohoop compound embodiments comprising meta-substitution (wherein the meta-substitution refers to the fact that one of the rings of the nanohoop skeleton is connected to other rings of the nanohoop skeleton via bonds that are meta-substituted relative to each other) was evaluated. It was determined that disrupting the conjugation of the nanohoop allows the HOMO→LUMO absorption and “turns on” the fluorescence in the smaller sizes (e.g., 6-membered and 5-membered nanohoops). The absorption and emission data as well as extinction coefficients and quantum yields were collected. […] Two absorption transitions can be seen in for the smaller sizes, but the second transition blue-shifts and overlaps with the absorption at 328 nm for [10]- and [12]mCPP. The extinction coefficient of the higher energy transition is larger than that of the lower energy transition in all cases (Table 10). […] Graphs showing the extinction coefficient determination of [5]mCPP at the absorbance maxima and HOMO→LUMO transition are provided in FIGS. 10A and 10B, respectively. Graphs showing the extinction coefficient determination of [6]mCPP at the absorbance maxima and HOMO→LUMO transition are provided in FIGS. 11A and 11B, respectively. Graphs showing the extinction coefficient determination of [7]mCPP at the absorbance maxima and HOMO→LUMO transition are provided in FIGS. 12A and 12B, respectively. Graphs showing the extinction coefficient determination of [8]mCPP at the absorbance maxima and HOMO→LUMO transition are provided in FIGS. 13A and 13B, respectively. Graphs showing the extinction coefficient determination of [10]mCPP and [12]mCPP at the absorbance maxima are provided in FIGS. 14 and 15, respectively. […]

[2] = tested on: HeLa cells; experiment: Colorimetric CCK-8 viability assay of HeLa cells; format: cell-based; conditions: [12]CPP 0.25-1 uM, [8]CPP 0.5-2 uM, 5 wt percent Pluronic F108 in DMEM
Protocol: HeLa cells were treated with varying concentrations of [8]CPP and [12]CPP in the presence of 5 wt percent Pluronic F108 in DMEM, and their viability was measured using a colorimetric CCK-8 assay (purchased from Dojindo and performed following the assay instructions). Briefly, the cells were treated with the nanohoop compound and the tetrazolium salt WST-8 at each concentration for 2 hours at 37 degrees Celsius, and the optical density of the cells was subsequently measured at 450 nm. The viability of cells treated with the [12]CPP and [8]CPP compounds is illustrated in FIGS. 1 and 2, respectively.
In this example, HeLa cells were treated with the disulfonated[8]CPP nanohoop Compound 1 at concentrations of 5 uM, 10 uM, 25 uM, 50 uM and 100 uM and their viability was measured using a standard colorimetric CCK-8 assay, as described above for Example 1. The percentage of living cells remaining after exposure to various concentrations of Compound 1 is illustrated in the graph shown in FIG. 3.

[3] = all-para [n]CPP, n≤7; cited from earlier work

CPP ε × Φ (brightness) [1] | εAmax × ΦAmax (brightness) [1] | Emission [1] [nm] | Max Abs [1] [nm] | ΦAmax (fluorescence quantum yield) [1] | εAmax [1] | H→L Absorbance ([1]; HOMO→LUMO transition) [nm] | εH→L [1] | Compound | fluorescence of para-substituted CPP (in words) [3] | other results
1.4 × 10^5 | – | – | – | – | – | – | – | c1cc2ccc1-c1ccc(cc1)-c1ccc(cc1)-c1ccc(cc1)-c1ccc(cc1)-c1ccc(cc1)-c1ccc(cc1)-c1ccc(cc1)-c1ccc(cc1)-c1ccc(cc1)-c1ccc(cc1)-c1ccc-2cc1 [[12]CPP, reference compound] | – | toxicity to HeLa cells (in words) [2]: not toxic
8.5 × 10^4 | – | – | – | – | – | – | – | c1cc2ccc1-c1ccc(cc1)-c1ccc(cc1)-c1ccc(cc1)-c1ccc(cc1)-c1ccc(cc1)-c1ccc(cc1)-c1ccc(cc1)-c1ccc(cc1)-c1ccc-2cc1 [[10]CPP, reference compound] | – | –
– | 5.2 × 10^4 | 456 | 328 | 0.726 | 7.1 × 10^4 ± 0.2 M^−1cm^−1 | – | – | c1cc2cc(c1)-c1ccc(cc1)-c1ccc(cc1)-c1ccc(cc1)-c1ccc(cc1)-c1ccc(cc1)-c1ccc(cc1)-c1ccc(cc1)-c1ccc(cc1)-c1ccc-2cc1 [[10]mCPP] | – | overall brightness versus commercial fluorophores (in words) ([1]; compared with DAPI and Rhodamine 110): brighter than many commercial fluorophores
1.0 × 10^4 | – | – | – | – | – | – | – | c1cc2ccc1=c1ccc(cc1)=c1ccc(cc1)=c1ccc(cc1)=c1ccc(cc1)=c1ccc(cc1)=c1ccc(cc1)=c1ccc=2cc1 [[8]CPP, reference compound] | – | toxicity to HeLa cells (in words) [2]: not toxic
– | 2.3 × 10^4 | 491 | 328 | 0.450 | 5.1 × 10^4 ± 0.09 M^−1cm^−1 | 394 | 9.9 × 10^3 ± 0.08 M^−1cm^−1 | O[C@]12C=C[C@](O)(CC1)c1ccc(cc1)-c1ccc(cc1)[C@]1(O)C=C[C@@H](C=C1)c1ccc(cc1)-c1cccc(c1)-c1ccc2cc1 [[7]mCPP] | – | –
0 | – | – | – | – | – | – | – | c1cc2ccc1=c1ccc(cc1)=c1ccc(cc1)=c1ccc(cc1)=c1ccc(cc1)=c1ccc=2cc1 [[6]CPP, reference compound] | no fluorescence | –
0 | – | – | – | – | – | – | – | c1cc2ccc1=c1ccc(cc1)=c1ccc(cc1)=c1ccc(cc1)=c1ccc=2cc1 [[5]CPP, reference compound] | no fluorescence | absorption (extinction coefficient) compared with [5]mCPP ([1]; all-para [5]CPP, HOMO→LUMO transition): 450 M⁻¹ cm⁻¹
4.8 × 10^2 | – | – | – | – | – | – | – | c1cc2ccc1-c1ccc(cc1)-c1ccc(cc1)-c1ccc(cc1)-c1ccc(cc1)-c1ccc(cc1)-c1ccc-2cc1 [[7]CPP, reference compound] | only weak fluorescence | –
– | 3.7 × 10^4 | 484 | 326 | 0.595 | 6.2 × 10^4 ± 0.9 M^−1cm^−1 | 376 | 1.4 × 10^4 ± 0.1 M^−1cm^−1 | CO[C@]12C=C[C@](O)(C=C1)c1ccc(cc1)-c1cccc(c1)-c1ccc(cc1)[C@]1(O)C=C[C@@](OC)(C=C1)C1C=CC(=CC1)[C@]1(O)C=C[C@@](O)(CC1)[C@H]1C=CC2=CC1 [[8]mCPP] | – | –
– | 1.2 × 10^4 | 510 | 328 | 0.224 | 5.4 × 10^4 ± 0.3 M^−1cm^−1 | 410 | 9.4 × 10^3 ± 0.5 M^−1cm^−1 | O[C@]12C=C[C@](O)(C=C1)c1ccc(cc1)[C@]1(O)C=C[C@@](O)(C=C1)c1ccc(cc1)-c1cccc(c1)[C@@H]1C=CC2=CC1 [[6]mCPP] | – | –
